Columns and labels:
Experiment in all cases: relative viability (nuclei count vs DMSO), 5 days (fraction); higher = more cells survive
NCI-H2023 = tested on: NCI-H2023
Procedure, shortened: (§1)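 A single step with final 0.05% Triton X-100, 1% formaldehyde and 1 ug/ml Hoechst fixed the cells and stained nuclei 5 days after treatment. Lung cancer cell lines in 1536-well plates had been treated by pin tool the day after seeding with one drug alone or a fixed anchor-drug dose plus five library-drug doses (not always all listed) in √10 steps, and nuclei were counted on 4× images. Relative viability is the ratio of nuclei in treated wells to nuclei in vehicle wells, taken as the median of duplicate plates.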

NCI-H2405 = tested on: NCI-H2405
Procedure, shortened: as §1

NCI-H1792 = tested on: NCI-H1792
Procedure, shortened: as §1

HARA = tested on: HARA
Procedure, shortened: as §1

SK-LU-1 = tested on: SK-LU-1
Procedure, shortened: as §1

NCI-H2085 = tested on: NCI-H2085
Procedure, shortened: as §1

NCI-H727 = tested on: NCI-H727
Procedure, shortened: as §1

NCI-H1437 = tested on: NCI-H1437
Procedure, shortened: as §1

NCI-H661 = tested on: NCI-H661
Procedure, shortened: as §1

COR-L23 = tested on: COR-L23
Procedure, shortened: as §1

COR-L 105 = tested on: COR-L 105
Procedure, shortened: as §1

UMC-11 = tested on: UMC-11
Procedure, shortened: as §1

NCI-H1944 = tested on: NCI-H1944
Procedure, shortened: as §1

NCI-H358 = tested on: NCI-H358
Procedure, shortened: as §1

LCLC-103H = tested on: LCLC-103H
Procedure, shortened: as §1

EPLC-272H = tested on: EPLC-272H
Procedure, shortened: as §1

HCC-366 = tested on: HCC-366
Procedure, shortened: as §1

HCC-15 = tested on: HCC-15
Procedure, shortened: as §1

NCI-H1975 = tested on: NCI-H1975
Procedure, shortened: as §1

HCC-78 = tested on: HCC-78
Procedure, shortened: as §1

HCC-44 = tested on: HCC-44
Procedure, shortened: as §1

HCC-827 = tested on: HCC-827
Procedure, shortened: as §1

`O=c1[nH]c2ccccc2n1C1CCN(CCCC(c2ccc(F)cc2)c2ccc(F)cc2)CC1` [Pimozide] + C[C@@H](Oc1cc(-c2cnn(C3CCNCC3)c2)cnc1N)c1c(Cl)ccc(F)c1Cl [Crizotinib] (partner 1 µM) showed a relative viability (NCI-H2023; first compound 0.08 µM) of 0.539, a relative viability (NCI-H2023; first compound 0.253 µM) of 0.615 and a relative viability (NCI-H2023; first compound 0.8 µM) of 0.742. The relative viability (NCI-H2023; first compound 2.53 µM) was 0.524, the relative viability (NCI-H2023; first compound 8 µM) was 0.522 and the relative viability (NCI-H2405; first compound 0.08 µM) was 0.831. For the same molecule, the relative viability (NCI-H2405; first compound 0.253 µM) was 0.814, the relative viability (NCI-H2405; first compound 0.8 µM) was 0.83 and the relative viability (NCI-H2405; first compound 2.53 µM) was 0.819. The relative viability (NCI-H2405; first compound 8 µM) was 0.789, the relative viability (NCI-H1792; first compound 0.08 µM) was 0.95 and the relative viability (NCI-H1792; first compound 0.253 µM) was 0.944. It also gave a relative viability (NCI-H1792; first compound 0.8 µM) of 0.937, a relative viability (NCI-H1792; first compound 2.53 µM) of 0.937 and a relative viability (NCI-H1792; first compound 8 µM) of 0.971. For the same molecule, the relative viability (HARA; first compound 0.08 µM) was 0.991, the relative viability (HARA; first compound 0.253 µM) was 1.07 and the relative viability (HARA; first compound 0.8 µM) was 1.01. For the same molecule, the relative viability (HARA; first compound 2.53 µM) was 0.927, the relative viability (HARA; first compound 8 µM) was 0.961 and the relative viability (SK-LU-1; first compound 0.08 µM) was 0.895. It also gave a relative viability (SK-LU-1; first compound 0.253 µM) of 0.792, a relative viability (SK-LU-1; first compound 0.8 µM) of 0.912 and a relative viability (SK-LU-1; first compound 2.53 µM) of 0.786. The relative viability (SK-LU-1; first compound 8 µM) was 0.769, the relative viability (NCI-H2085; first compound 0.08 µM) was 0.897 and the relative viability (NCI-H2085; first compound 0.253 µM) was 0.792. It also gave a relative viability (NCI-H2085; first compound 0.8 µM) of 0.772, a relative viability (NCI-H2085; first compound 2.53 µM) of 0.712 and a relative viability (NCI-H2085; first compound 8 µM) of 0.775. For the same molecule, the relative viability (NCI-H727; first compound 0.08 µM) was 0.958, the relative viability (NCI-H727; first compound 0.253 µM) was 0.791 and the relative viability (NCI-H727; first compound 0.8 µM) was 0.855. For the same molecule, the relative viability (NCI-H727; first compound 2.53 µM) was 0.765, the relative viability (NCI-H727; first compound 8 µM) was 0.756 and the relative viability (NCI-H1437; first compound 0.08 µM) was 0.949. For the same molecule, the relative viability (NCI-H1437; first compound 0.253 µM) was 0.878, the relative viability (NCI-H1437; first compound 0.8 µM) was 0.898 and the relative viability (NCI-H1437; first compound 2.53 µM) was 0.903. The relative viability (NCI-H1437; first compound 8 µM) was 0.751, the relative viability (NCI-H661; first compound 0.08 µM) was 0.975 and the relative viability (NCI-H661; first compound 0.8 µM) was 0.921. The relative viability (NCI-H661; first compound 2.53 µM) was 0.995, the relative viability (NCI-H661; first compound 8 µM) was 0.962 and the relative viability (COR-L23; first compound 0.08 µM) was 0.656. The relative viability (COR-L23; first compound 0.253 µM) was 0.606, the relative viability (COR-L23; first compound 0.8 µM) was 0.575 and the relative viability (COR-L23; first compound 2.53 µM) was 0.601. It also gave a relative viability (COR-L23; first compound 8 µM) of 0.575, a relative viability (COR-L 105; first compound 0.253 µM) of 0.831 and a relative viability (COR-L 105; first compound 0.8 µM) of 0.691. For the same molecule, the relative viability (COR-L 105; first compound 2.53 µM) was 0.645, the relative viability (COR-L 105; first compound 8 µM) was 0.555 and the relative viability (UMC-11; first compound 0.08 µM) was 0.574. The relative viability (UMC-11; first compound 0.253 µM) was 0.618, the relative viability (UMC-11; first compound 0.8 µM) was 0.634 and the relative viability (UMC-11; first compound 2.53 µM) was 0.584. The relative viability (UMC-11; first compound 8 µM) was 0.705, the relative viability (NCI-H1944; first compound 0.08 µM) was 0.992 and the relative viability (NCI-H1944; first compound 0.253 µM) was 1.03. It also gave a relative viability (NCI-H1944; first compound 0.8 µM) of 1.05, a relative viability (NCI-H1944; first compound 2.53 µM) of 0.967 and a relative viability (NCI-H1944; first compound 8 µM) of 0.939. The relative viability (NCI-H358; first compound 0.08 µM) was 0.573, the relative viability (NCI-H358; first compound 0.253 µM) was 0.519 and the relative viability (NCI-H358; first compound 0.8 µM) was 0.448. The relative viability (NCI-H358; first compound 2.53 µM) was 0.335, the relative viability (NCI-H358; first compound 8 µM) was 0.546 and the relative viability (LCLC-103H; first compound 0.08 µM) was 1. For the same molecule, the relative viability (LCLC-103H; first compound 0.253 µM) was 0.967, the relative viability (LCLC-103H; first compound 0.8 µM) was 1.02 and the relative viability (LCLC-103H; first compound 2.53 µM) was 1.07. For the same molecule, the relative viability (LCLC-103H; first compound 8 µM) was 1.12, the relative viability (EPLC-272H; first compound 0.08 µM) was 0.789 and the relative viability (EPLC-272H; first compound 0.253 µM) was 0.686. It also gave a relative viability (EPLC-272H; first compound 0.8 µM) of 0.908, a relative viability (EPLC-272H; first compound 2.53 µM) of 0.904 and a relative viability (EPLC-272H; first compound 8 µM) of 0.803. It also gave a relative viability (HCC-366; first compound 0.08 µM) of 0.574, a relative viability (HCC-366; first compound 0.253 µM) of 0.455 and a relative viability (HCC-366; first compound 0.8 µM) of 0.448. It also gave a relative viability (HCC-366; first compound 2.53 µM) of 0.503, a relative viability (HCC-366; first compound 8 µM) of 0.525 and a relative viability (HCC-15; first compound 0.08 µM) of 0.835. For the same molecule, the relative viability (HCC-15; first compound 0.253 µM) was 0.771, the relative viability (HCC-15; first compound 0.8 µM) was 0.724 and the relative viability (HCC-15; first compound 2.53 µM) was 0.761. It also gave a relative viability (HCC-15; first compound 8 µM) of 0.797, a relative viability (NCI-H1975; first compound 0.08 µM) of 0.919 and a relative viability (NCI-H1975; first compound 0.253 µM) of 1.02. The relative viability (NCI-H1975; first compound 0.8 µM) was 0.83, the relative viability (NCI-H1975; first compound 2.53 µM) was 0.882 and the relative viability (NCI-H1975; first compound 8 µM) was 0.73. It also gave a relative viability (HCC-78; first compound 0.08 µM) of 0.263, a relative viability (HCC-78; first compound 0.253 µM) of 0.339 and a relative viability (HCC-78; first compound 0.8 µM) of 0.333. For the same molecule, the relative viability (HCC-78; first compound 2.53 µM) was 0.354, the relative viability (HCC-78; first compound 8 µM) was 0.315 and the relative viability (HCC-44; first compound 0.08 µM) was 0.73. The relative viability (HCC-44; first compound 0.253 µM) was 0.733, the relative viability (HCC-44; first compound 0.8 µM) was 0.743 and the relative viability (HCC-44; first compound 2.53 µM) was 0.829. It also gave a relative viability (HCC-44; first compound 8 µM) of 0.75, a relative viability (HCC-827; first compound 0.253 µM) of 0.887 and a relative viability (HCC-827; first compound 0.8 µM) of 0.826. The relative viability (HCC-827; first compound 2.53 µM) was 0.936 and the relative viability (HCC-827; first compound 8 µM) was 0.885.
